Laboratory results taken from patent US8106045B2, “2-morpholino-4-pyrimidone compound” (Mitsubishi Tanabe Pharma Corporation, priority 2004, dated 2012).

molecular target: T1, bovine cerebral TPK1 (Bos taurus, UniProt A0A3Q1MT31); test: Inhibitory activity against P-GS1 phosphorylation by bovine cerebral TPK1; format: biochemical; settings: 41.7 μM [γ-32P] ATP, 25° C. for 2 hours
T1 construct: bovine cerebral TPK1; from tissue; host or cells: bovine cerebrum (brain)
Procedure: Experiment 1: Inhibitory Activity of the Medicament of the Present Invention Against P-GS1 Phosphorylation by Bovine Cerebral TPK1
A mixture containing 100 mM MES-sodium hydroxide (pH 6.5), 1 mM magnesium acetate, 0.5 mM EGTA, 5 mM B-mercaptoethanol, 0.02% Tween 20, 10% glycerol, 12 μg/ml P-GS1, 41.7 μM [γ-^32P] ATP (68 kBq/ml), bovine cerebral TPK1 and a compound shown in Table (a final mixture contained 1.7% DMSO deriving from a solution of a test compound prepared in the presence of 10% DMSO) was used as a reaction system. The phosphorylation was started by adding ATP, and the reaction was conducted at 25° C. for 2 hours, and then stopped by adding 21% perchloric acid on ice cooling. The reaction mixture was centrifuged at 12,000 rpm for 5 minutes and adsorbed on P81 paper (Whatmann), and then the paper was washed four times with 75 mM phosphoric acid, three times with water and once with acetone. The paper was dried, and the residual radioactivity was measured using a liquid scintillation counter.

T1 sequence (A0A3Q1MT31 1-419): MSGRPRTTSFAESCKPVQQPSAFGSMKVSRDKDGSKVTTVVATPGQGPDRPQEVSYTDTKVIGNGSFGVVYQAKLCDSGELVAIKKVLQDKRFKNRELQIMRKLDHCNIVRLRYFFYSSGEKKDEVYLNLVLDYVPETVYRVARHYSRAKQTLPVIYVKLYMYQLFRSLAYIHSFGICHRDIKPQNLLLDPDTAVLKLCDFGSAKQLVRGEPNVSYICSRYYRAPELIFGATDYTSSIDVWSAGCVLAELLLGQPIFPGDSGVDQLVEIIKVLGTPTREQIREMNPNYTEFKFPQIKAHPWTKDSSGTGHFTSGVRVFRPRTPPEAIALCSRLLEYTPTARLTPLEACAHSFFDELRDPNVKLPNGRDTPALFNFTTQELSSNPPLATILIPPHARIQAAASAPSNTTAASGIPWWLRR

Compound | IC50
Cn1c(N2CCO[C@@H](c3ccc(OCCCN4CCCC4)cc3)C2)nc(-c2ccncn2)cc1=O [Compound No. 202, 2-((2S)-2-(4-(3-(pyrrolidin-1-yl)propyloxy)phenyl)morpholine-4-yl)-3-methyl-6-(pyrimidin-4-yl)-pyrimidin-4-one] | 0.43 nM
Cn1c(N2CCO[C@@H](c3ccc(C(=O)NCCO)cc3)C2)nc(-c2ccncn2)cc1=O [Compound No. 210, N-(2-hydroxy-ethyl)-4-[(2S)-4-(1-methyl-6-oxo-1,6-dihydro-[4,4′]bipyrimidinyl-2-yl)-morpholin-2-yl]-benzamide] | 5.4 nM
CN(C)C(=O)Nc1ccc([C@H]2CN(c3nc(-c4ccncc4)cc(=O)n3C)CCO2)cc1 [Compound No. 237, 1,1-Dimethyl-3-{4-[4-(1-methyl-6-oxo-4-pyridin-4-yl-1,6-dihydro-pyrimidin-2-yl)-morpholin-2-yl]-phenyl}-urea] | 9.7 nM
Cn1c(N2CCO[C@@H](c3ccc(N4CCC(N5CCCC5)CC4)cc3)C2)nc(-c2ccncc2)cc1=O [compound 6] | 3.4 nM
Cn1c(N2CCO[C@@H](c3ccc(Nc4ccncc4)cc3)C2)nc(-c2ccncc2)cc1=O [compound 50] | 4.8 nM
Cn1c(N2CCO[C@@H](c3ccc(NC(=O)c4ccccc4)cc3)C2)nc(-c2ccncc2)cc1=O [compound 70] | 5.1 nM
Cn1c(N2CCO[C@@H](c3ccc(NC(=O)CN4CCN(c5ccccc5)CC4)cc3)C2)nc(-c2ccncc2)cc1=O [compound 100] | 5.2 nM

Continued by falling IC50, values first:

IC50 | Compound
6.1 nM | CN(c1ccc([C@H]2CN(c3nc(-c4ccncn4)cc(=O)n3C)CCO2)cc1)[C@@H]1CCOC1 [Compound No. 091, 2-((2S)-2-(4-(N-methyl-N-((3R)-tetrahydrofuran-3yl)amino)phenyl)morpholin-4-yl)-3-methyl-6-(pyrimidin-4-yl)-3H-pyrimidin-4-one]
5.8 nM | COC(=O)Nc1ccc([C@H]2CN(c3nc(-c4ccncc4)cc(=O)n3C)CCO2)cc1 [Compound No. 231, Methyl (4-((2S)-4-(3-methyl-4-oxo-6-(pyridin-4-yl)-3H-pyrimidin-2-yl)morpholin-2-yl)-phenyl)carbamate]
0.48 nM | CN(C)CC(=O)Nc1ccc([C@H]2CN(c3nc(-c4ccncn4)cc(=O)n3C)CCO2)cc1 [Compound No. 220, N^2,N^2-Dimethyl-N^1-{4-[(2S)-4-(1-methyl-6-oxo-1,6-dihydro-4,4′-bipyrimidin-2-yl)morpholin-2-yl]phenyl}glycinamide]
